EC50 and I84V/L90M fold change data for 47 molecules are collected here from patent publication US20070190523A1 (priority 2002, published 2007).

One may read the EC50 as the midpoint of the concentration-response curve.

SMILES strings stand for the structures.

The subject of one test is wild-type HIV-1 strain IIIB. Put plainly: microbe, parasite or virus in culture. In kind it is cell-based. Particulars: Human immunodeficiency virus 1, IIIB, MT2.
With `CCOC(=O)C(CC)NP(=O)(COc1ccc(CC(NC(=O)OC2COC3OCCC23)C(O)CN(CC(C)C)S(=O)(=O)c2ccc(OC)cc2)cc1)NC(CC)C(=O)OCC` (centres unmarked) [drawing 606 R1=Aba-Et R2=Aba-Et], the EC50 is less than 50 nM.
The same measure, in the same setting: the figure for `COc1ccc(S(=O)(=O)N(CC(C)C)CC(O)C(Cc2ccc(C)cc2)NC(=O)OC2COC3OCCC23)cc1` (centres unmarked) is less than 50 nM.
`CCOC(=O)COP(=O)(COc1ccc(CC(NC(=O)OC2COC3OCCC23)C(O)CN(CC(C)C)S(=O)(=O)c2ccc(OC)cc2)cc1)OCC(=O)OCC` (centres unmarked) [drawing 607 R1=Glc-Et R2=Glc-Et] registered an EC50 of 500 to 5000 nM.
On the same count and under the same terms, the figure for `CCOP(=O)(COc1ccc(CC(NC(=O)OC2CCOC2)C(O)CN(CC(C)C)S(=O)(=O)c2ccc(OC)cc2)cc1)OCC` (centres unmarked) [OMe, OEt] is less than 50 nM.
On the same count and under the same terms, the figure for `CC(C)CN(CC(O)C(Cc1ccc(O)cc1)NC(=O)OC1COC2OCCC12)S(=O)(=O)c1ccc(OCP(=O)(O)O)cc1` (centres unmarked) [OH, OH] is more than 5000 nM; for `CCOP(=O)(COc1ccc2c(c1)CCN(CC(NC(=O)OC1COC3OCCC13)C(O)CN(CC(C)C)S(=O)(=O)c1ccc(OC)cc1)C2)OCC` (centres unmarked) it is 50 to 500 nM.

The test is the same for the next values; noted with them: Human immunodeficiency virus 1, IIIB, MT2, Table 10, class symbols.
`CCOC(=O)C(C)OP(=O)(Cc1ccc2c(c1)CCN(CC(NC(=O)OC1COC3OCCC13)C(O)CN(CC(C)C)S(=O)(=O)c1ccc(OC)cc1)C2)Oc1ccccc1` (centres unmarked) registered a 50% effective concentration (EC50) of 50 to 500 nM.
Molecule `CCOC(=O)COP(=O)(COc1ccc(CC(NC(=O)OC2COC3OCCC23)C(O)CN(CC(C)C)S(=O)(=O)c2ccc(OC)cc2)cc1)Oc1ccccc1` (centres unmarked) [drawing 609 R1=OPh R2=Glc-Et] had an EC50 of less than 50 nM.

The test is the same for the next values; noted with them: read-out: Anti-HIV-1 Cell Culture Activity EC50.
Regarding `CCCCOC(=O)C(Cc1ccccc1)NP(=O)(COc1ccc(CC(NC(=O)OC2COC3OCCC23)C(O)CN(CC(C)C)S(=O)(=O)c2ccc(OC)cc2)cc1)NC(Cc1ccccc1)C(=O)OCCCC` (centres unmarked) [Example 16j], the EC50 stood at 35 ± 7 nM.

Still in this test, the particulars now being: read-out: EC50.
In the case of `CC(C)CN(C[C@@H](O)[C@H](Cc1ccc(OCP(=O)(OCc2ccccc2)OC(C)C(=O)OCc2ccccc2)cc1)NC(=O)O[C@H]1CO[C@H]2OCC[C@H]21)S(=O)(=O)c1ccc(OCc2ccccc2)cc1` (some centres unmarked), the EC50 was in the range of 500 to 5000 nM.
On the same count and under the same terms, the figure for `Cc1ccc(C(=O)N[C@@H](Cc2ccc(OCP(=O)(Oc3ccccc3)Oc3ccccc3)cc2)[C@H](O)CN(CC(C)C)S(=O)(=O)c2ccc(N)cc2)cc1O` is 500 to 5000 nM.
Still for that read-out and setting: the figure for `COc1ccc(S(=O)(=O)N(CC(C)C)CC(O)C(Cc2ccc(NCP(=O)(O)O)cc2)NC(=O)OC2COC3OCCC23)cc1` (centres unmarked) is 50 to 500 nM.

The target of the next test is WT (Human immunodeficiency virus type 1 group M subtype B, UniProt P04585). Put plainly: cell-based. The arrangement: species or system HIV.
Settings: not given
As to `Nc1n[nH]c2ccc(CN3C(=O)N(Cc4ccc(OCP(=O)(OCc5ccccc5)OCc5ccccc5)cc4)C(Cc4ccccc4)C(O)C(O)C3Cc3ccccc3)cc12` (centres unmarked), the response was half-maximal at 2700 nM (EC50).
As to `Nc1n[nH]c2ccc(CN3C(=O)N(Cc4cccc(O)c4)C(Cc4ccccc4)C(O)C(O)C3Cc3ccccc3)cc12` (centres unmarked) [m-OH], the EC50 came out at 151 nM.
With `Nc1n[nH]c2ccc(CN3C(=O)N(Cc4cccc(OCP(=O)(O)O)c4)C(Cc4ccccc4)C(O)C(O)C3Cc3ccccc3)cc12` (centres unmarked) [m-OCH2PO3H2], the EC50 was more than 12000 nM.
Same read-out and setting: the figure for `CCOP(=O)(COc1cccc(CN2C(=O)N(Cc3ccc4[nH]nc(N)c4c3)C(Cc3ccccc3)C(O)C(O)C2Cc2ccccc2)c1)OCC` (centres unmarked) is 665 nM.
On the same count and under the same terms, the figure for `Nc1n[nH]c2ccc(CN3C(=O)N(Cc4cccc(OCP(=O)(OCc5ccccc5)OCc5ccccc5)c4)C(Cc4ccccc4)C(O)C(O)C3Cc3ccccc3)cc12` (centres unmarked) is 898 nM; for `Nc1n[nH]c2ccc(CN3C(=O)N(Cc4cccc(OCP(=O)(O)Oc5ccccc5)c4)C(Cc4ccccc4)C(O)C(O)C3Cc3ccccc3)cc12` (centres unmarked) [m-OCH2PO3HPh] it is 1750 nM; for `CCOP(=O)(CCCNC(=O)c1cccc(CN2C(=O)N(Cc3cccc(N)c3)C(Cc3ccccc3)C(O)C(O)C2Cc2ccccc2)c1)OCC` (centres unmarked) it is 176 nM.
`CCOP(=O)(COCCCCN1C(=O)N(Cc2ccc3[nH]nc(N)c3c2)C(Cc2ccccc2)C(O)C(O)C1Cc1ccccc1)OCC` (centres unmarked) [CH2OCH2PO3Et2] had an EC50 of 119 nM.
On the same count and under the same terms, the figure for `Nc1n[nH]c2ccc(CN3C(=O)N(Cc4cccc(OCP(=O)(Oc5ccccc5)Oc5ccccc5)c4)C(Cc4ccccc4)C(O)C(O)C3Cc3ccccc3)cc12` (centres unmarked) [m-OCH2PO3Ph2] is 1350 nM.
On the same count and under the same terms, the figure for `Nc1n[nH]c2ccc(CN3C(=O)N(CCCCOCP(=O)(O)O)C(Cc4ccccc4)C(O)C(O)C3Cc3ccccc3)cc12` (centres unmarked) [CH2OCH2PO3H2] is 1760 nM.
The same measure, in the same setting: the figure for `CCOP(=O)(COc1ccc(CN2C(=O)N(Cc3ccc4[nH]nc(N)c4c3)C(Cc3ccccc3)C(O)C(O)C2Cc2ccccc2)cc1)OCC` (centres unmarked) is 2480 nM.
The molecule `CCOP(=O)(COc1ccc(CC2C(O)C(O)C(Cc3ccc(OC)cc3)N(Cc3cccc(N)c3)C(=O)N2Cc2cccc(N)c2)cc1)OCC` (centres unmarked) [OCH3, Ph-mNH2, OCH2PO3Et2] displayed an EC50 of 63 nM.
Consider `CCCCN1C(=O)N(Cc2ccc3[nH]nc(N)c3c2)C(Cc2ccccc2)C(O)C(O)C1Cc1ccccc1` (centres unmarked) [DMP-851], for which the EC50 turned out to be 54 nM.

The next test concerns mutant HIV-1 with I84V/L90M mutations.
Assay: not given
It is filed as cell-based. The following applies: I84V/L90M mutant.
Regarding `COc1ccc(S(=O)(=O)N(CC(C)C)CC(O)C(Cc2ccc(C)cc2)NC(=O)OC2COC3OCCC23)cc1` (centres unmarked), the I84V/L90M fold change entry is given as “+ (>3 to ≦10)”.
Still for that read-out and setting: the entry for `CCOC(=O)C(C)OP(=O)(Cc1ccc2c(c1)CCN(C[C@H](NC(=O)O[C@H]1CO[C@H]3OCC[C@H]31)[C@H](O)CN(CC(C)C)S(=O)(=O)c1ccc(OC)cc1)C2)Oc1ccccc1` (some centres unmarked) is “+ (>3 to ≦10)”; for `CCCCOC(=O)C(C)OP(=O)(COc1ccc(CC(NC(=O)OC2COC3OCCC23)C(O)CN(CC(C)C)S(=O)(=O)c2cccc(N)c2)cc1)Oc1ccccc1` (centres unmarked) it is “− (≦3)”.
On the same count and under the same terms, the entry for `CC(C)CN(C[C@@H](O)[C@H](Cc1ccc(OCP(=O)(Oc2ccccc2)Oc2ccccc2)cc1)NC(=O)OC1CCOC1)S(=O)(=O)c1ccc(N)cc1` (some centres unmarked) [NH2, phenol] is “− (≦3)”; for `COc1ccc(S(=O)(=O)N(CC(C)C)C[C@@H](O)[C@H](Cc2ccc(OCP(=O)(O)O)cc2)NC(=O)OC2CCOC2)cc1` (some centres unmarked) [OMe, OH] it is “+++ (>30)”.
On the same count and under the same terms, the entry for `CC(C)CN(CC(O)C(Cc1ccc(OCP(=O)(OCc2ccccc2)OCc2ccccc2)cc1)NC(=O)OC1COC2OCCC12)S(=O)(=O)c1ccccc1` (centres unmarked) is “+ (>3 to ≦10)”; for `CCOP(=O)(COc1ccc(CC(NC(=O)OC2CCOC2)C(O)CN(CC(C)C)S(=O)(=O)c2ccc(OC)cc2)cc1)OCC` (centres unmarked) [OMe, OEt] it is “++ (>10 to ≦30)”; for `COc1ccc(S(=O)(=O)N(CCN(C)C)CC(O)C(Cc2ccc(OCc3ccccc3)cc2)NC(=O)OC2COC3OCCC23)cc1` (centres unmarked) it is “− (≦3)”.
Consider `CCOP(=O)(COc1cc(S(=O)(=O)N(CC(C)C)CC(O)C(Cc2ccccc2)NC(=O)OC2COC3OCCC23)ccc1O)OCC` (centres unmarked), for which the I84V/L90M fold change entry was “− (≦3)”.
For `COc1ccc(S(=O)(=O)N(CC(C)C)C[C@@H](O)[C@H](Cc2ccc(OCP(=O)(Oc3ccccc3)Oc3ccccc3)cc2)NC(=O)OC2CCOC2)cc1` (some centres unmarked) [OMe, phenol], the I84V/L90M fold change result was “+ (>3 to ≦10)”.
As for `CCOP(=O)(COc1ccc(CC(NC(=O)OC2COC3OCCC23)C(O)CN(CC(C)C)S(=O)(=O)c2cccc(N)c2)cc1)OCC` (centres unmarked), the I84V/L90M fold change entry was “− (≦3)”.

Staying with this test, now noted: fold difference in EC50 vs wild type, class symbols.
`CCOC(=O)C(C)OP(=O)(Cc1ccc2c(c1)CCN(CC(NC(=O)OC1COC3OCCC13)C(O)CN(CC(C)C)S(=O)(=O)c1ccc(OC)cc1)C2)Oc1ccccc1` (centres unmarked): the I84V/L90M fold change result is recorded as “+ (>3 to ≦10)”.
Consider `CCOC(=O)C(C)OP(=O)(COc1ccc(CC(NC(=O)OC2COC3OCCC23)C(O)CN(CC(C)C)S(=O)(=O)c2ccc(OC)cc2)cc1)OC(C)C(=O)OCC` (centres unmarked) [drawing 607 R1=Lac-Et R2=Lac-Et], for which the I84V/L90M fold change entry is “− (≦3)”.
As for `CCOP(=O)(COc1ccc(CC(NC(=O)OC2COC3OCCC23)C(O)CN(CC(C)C)S(=O)(=O)c2ccc(OC)cc2)cc1)OCC` (centres unmarked) [drawing 602 R1=OEt R2=OEt], the I84V/L90M fold change result is recorded as “− (≦3)”.
The same measure, in the same setting: the entry for `CCOC(=O)COP(=O)(COc1ccc(CC(NC(=O)OC2COC3OCCC23)C(O)CN(CC(C)C)S(=O)(=O)c2ccc(OC)cc2)cc1)Oc1ccccc1` (centres unmarked) [drawing 609 R1=OPh R2=Glc-Et] is “− (≦3)”; for `COc1ccc(S(=O)(=O)N(CC(C)C)CC(O)C(Cc2ccc(OCP(=O)(NC(C)C(=O)OC(C)C)Oc3ccccc3)cc2)NC(=O)OC2COC3OCCC23)cc1` (centres unmarked) [drawing 608 R1=OPh R2=(D)Ala-iPr] it is “− (≦3)”.
Regarding `COC(=O)C(C)NP(=O)(COc1ccc(CC(NC(=O)OC2COC3OCCC23)C(O)CN(CC(C)C)S(=O)(=O)c2ccc(OC)cc2)cc1)Oc1ccccc1` (centres unmarked) [drawing 608 R1=OPh R2=Ala-Me], the I84V/L90M fold change result is “− (≦3)”.
On the same count and under the same terms, the entry for `COc1ccc(S(=O)(=O)N(CC(C)C)CC(O)C(Cc2ccc(OCP(=O)(O)OC(C)C(=O)O)cc2)NC(=O)OC2COC3OCCC23)cc1` [drawing 609 R1=OH R2=(R)Lac-OH] is “− (≦3)”; for `CCOC(=O)COP(=O)(COc1ccc(CC(NC(=O)OC2COC3OCCC23)C(O)CN(CC(C)C)S(=O)(=O)c2ccc(OC)cc2)cc1)OCC(=O)OCC` (centres unmarked) [drawing 607 R1=Glc-Et R2=Glc-Et] it is “− (≦3)”.
Same read-out and setting: the entry for `COc1ccc(S(=O)(=O)N(CC(C)C)CC(O)C(Cc2ccc(OCP(=O)(O)O)cc2)NC(=O)OC2COC3OCCC23)cc1` (centres unmarked) [drawing 602 R1=OH R2=OH] is “− (≦3)”.
Same read-out and setting: the entry for `COc1ccc(S(=O)(=O)N(CC(C)C)CC(O)C(CC2=CCN(CCP(=O)(OCc3ccccc3)OCc3ccccc3)CC2)NC(=O)OC2COC3OCCC23)cc1` (centres unmarked) is “+ (>3 to ≦10)”; for `CCOP(=O)(Cc1ccc(NCC(NC(=O)OC2COC3OCCC23)C(O)CN(CC(C)C)S(=O)(=O)c2ccc(OC)cc2)cc1)OCC` (centres unmarked) it is “+ (>3 to ≦10)”; for `COc1ccc(S(=O)(=O)N(CC(C)C)CC(O)C(Cc2ccc(OCP(=O)(OC(C)C)OC(C)C)cc2)NC(=O)OC2COC3OCCC23)cc1` (centres unmarked) [drawing 602 R1=OiPr R2=OiPr] it is “− (≦3)”.
As for `CCOP(=O)(CCC1=CCN(CC(NC(=O)OC2COC3OCCC23)C(O)CN(CC(C)C)S(=O)(=O)c2ccc(OC)cc2)CC1)OCC` (centres unmarked), the I84V/L90M fold change result is recorded as “+ (>3 to ≦10)”.
The same measure, in the same setting: the entry for `CCOP(=O)(Cc1ccc2c(c1)CCN(CC(NC(=O)OC1COC3OCCC13)C(O)CN(CC(C)C)S(=O)(=O)c1ccc(OC)cc1)C2)OCC` (centres unmarked) is “+ (>3 to ≦10)”; for `CCOP(=O)(COc1ccc2c(c1)CCN(CC(NC(=O)OC1COC3OCCC13)C(O)CN(CC(C)C)S(=O)(=O)c1ccc(OC)cc1)C2)OCC` (centres unmarked) it is “+ (>3 to ≦10)”.
Still for that read-out and setting: the entry for `COc1ccc(S(=O)(=O)N(CC(C)C)CC(O)C(Cc2ccc(OCP(=O)(NC(C)C(=O)OC(C)C)Oc3ccccc3)cc2)NC(=O)OC2COC3OCCC23)cc1` (centres unmarked) [drawing 608 R1=OPh R2=Ala-iPr] is “− (≦3)”.
For the molecule `COc1ccc(S(=O)(=O)N(CC(C)C)CC(O)C(Cc2ccc(OCP(=O)(OC(C)C(=O)OC(C)C)OC(C)C(=O)OC(C)C)cc2)NC(=O)OC2COC3OCCC23)cc1` (centres unmarked) [drawing 607 R1=Lac-iPr R2=Lac-iPr], the I84V/L90M fold change result is “− (≦3)”.
